Measurements: patent publication US20240376120A1, “CAMPTOTHECIN COMPOUND, PREPARATION METHOD THEREFOR AND USE THEREOF” (priority 2021, published 2024)
pIC50: −log10 of the molar value. Where two headings read alike, the source gives them in different places.

Experiments:
[1] = system: MDA-MB-435s cells (human melanoma cells); assay: MDA-MB-435s cell proliferation inhibitory assay (CellTiter-Glo); format: cell-based; details: Homo sapiens
Description: (§1) • 1). […] Resuspend an appropriate amount of cell suspension to 3000 cells/100 μL according to the count, mixed well and then put the corresponding number of cells into a 96-well plate by pipette. • 3). Each hole of the edge was sealed with 100 μL DPBS and put into an incubator for culture. • 4). Day 1 drug addition: Prepare the storage solution of the compound to be tested 1 hour in advance. 24 h after plating, the culture medium was gradiently diluted to a concentration twice the final concentration of each group. Take out the plated cells from the incubator and add 100 μL of the corresponding 2-fold concentration medium to each well by pipette. • 5). Day 1 detected: Take out an appropriate amount of CTG 1 h in advance and the plate was allowed to equilibrate at room temperature for 30 min. 100 μL of CTG was added to each well and shaken for 5 mins, and then standed in the dark for 5 mins, the luminescence value was detected by ELISA. • 6). Day 4 detection: Take an appropriate amount of CTG 1 h in advance and rewarm it at room temperature in the dark. At the same time, take out the plate to be tested from the incubator and leave it to equilibrate at room temperature for 30 minutes; 72 h after adding the drug, 100 μL of culture medium was sucked out with pipette carefully from each cell well, and 100 μL of CTG was added. The mixture was shaken for 5 min, and after equilibration in the dark for 5 min, the luminescence value was detected with ELISA. • 7). Analyze data and write detailed experimental records.
Collect data and convert it into survival rate: Inhibition rate (%)=(100−(OD value of compound−OD value on the first day)/(OD value of control well-OD value on the first day))×100%
(§2) Input the compound into graphpad prism to obtain the corresponding IC50 value.

[2] = system: MCF-7 cells (human breast cancer cells); assay: MCF-7 cell proliferation inhibitory assay (CellTiter-Glo); format: cell-based; details: Homo sapiens
Description: • 1). […] Resuspend an appropriate amount of cell suspension to 4000 cells/100 μL according to the count, mixed well and then put the corresponding number of cells into a 96-well plate by pipette. • 3). Each hole of the edge was sealed with 100 μL DPBS and put into an incubator for culture. • 4). Day 1 drug addition: Prepare the storage solution of the compound to be tested 1 hour in advance. 24 h after plating, the culture medium was gradiently diluted to a concentration twice the final concentration of each group. Take out the plated cells from the incubator and add 100 μL of the corresponding 2-fold concentration medium to each well by pipette.
Day 1 detected: Take out the plate to be tested and an appropriate amount of CTG in advance and rewarm it at room temperature in the dark. 50 μL of CTG was added to each well at 24 h. Shake with the oscillator for 5 minutes, and after balancing in the dark for 5 minutes, detect the luminescence value with a microplate reader; The mixture was shaken for 5 min, and after equilibration in the dark for 5 min, the luminescence value was detected with ELISA. • 6). Day 4 detection: Take an appropriate amount of CTG 1 h in advance and rewarm it at room temperature in the dark. At the same time, take out the plate to be tested from the incubator and leave it to equilibrate at room temperature for 30 minutes; 72 h after adding the drug, 100 μL of culture medium was sucked out with pipette carefully from each cell well, and 50 μL of CTG was added. The mixture was shaken for 5 min, and after equilibration in the dark for 5 min, the luminescence value was detected with ELISA analyzer. • 7). Data analysis and processed.
Collect data and convert it into survival rate: Inhibition rate (%)=(100−(OD value of compound-OD value on the first day)/(OD value of control well-OD value on the first day))×100%
as §2

in vitro = details: human, Caco-2
Description: Day 0 plated: After digesting the target cells in the logarithmic growth phase, make a single cell suspension and count. • 2). Took out the corresponding number of transwell chambers and placed them in a 24-well plate, added 200 μL PBS to the upper chamber, incubated for 10 mins, and removed the PBS from the upper chamber by pipette. • 3). According to the count, took an appropriate amount of cell suspension and resuspended it to 5000 cells/200 μL, mixed well and added it to the upper chamber of the transwell, and added 600 μL of complete culture medium to the lower chamber. • 4). medium exchanged on DAY1: The upper chamber and the lower chamber were exchanged with complete culture medium containing 0.1 mg/mL ascorbic acid for 9 days continuously, and the resistance value of membrane expansion was measured. […] Collected the liquid in the upper chamber and the lower chamber for detection. • 7). Calculated Papp according to the formula “Papp=dQ/(dt×A×C0)”. dQ/dt was the transport amount of drugs per unit time, which was the slope of the linear regression of cumulative drug release amount Q versus time t. A was the bottom area of the Transwell orifice plate membrane, and the bottom area was 0.33 cm^2 of 24-well plate in this experiment. Co was the initial concentration of drugs in the upper chamber (μg mL-1).

[3] = system: MDA-MB-231 cells (human breast cancer cells); assay: MDA-MB-231 cell proliferation inhibitory assay (CellTiter-Glo); format: cell-based; details: Homo sapiens
Description: as §1, §2

[4] = MDA-MB-435S, 72 h, read-out: Proliferation inhibition IC50
[5] = MCF7, 72 h, read-out: Proliferation inhibition IC50
[6] = MDA-MB-231, 72 h, read-out: Proliferation inhibition IC50

Row | Structure (SMILES) | pIC50 [1, 4] | pIC50 [2, 5] | pIC50 [3, 6] | further results
1 | CC[C@@]1(O)C(=O)OCc2c1cc1n(c2=O)Cc2c-1nc1cc(F)c(C)cc1c2CN [Compound A, reference compound] |  |  |  | pIC50 ([1]; MDA-MB-435s cells, 72 h after adding the drug, Table 3, read-out: Proliferation inhibition IC50): 7.67; pIC50 ([1]; MDA-MB-435s cells, comparative Table 4, read-out: MDA-MB-435s Proliferation inhibition IC50): 7.67; pIC50 ([2]; MCF7, MCF-7 cells, 72 h after adding the drug, Table 1, read-out: Proliferation inhibition IC50): 7.82; pIC50 ([2]; MCF7, MCF-7 cells, comparative Table 4, read-out: MCF-7 Proliferation inhibition IC50): 7.82; Papp A→B at 180 min, 100 μg/mL (in vitro): 68.8 ×10⁻⁶ cm/s; pIC50 ([3]; MDA-MB-231 cells, 72 h after adding the drug, Table 2, read-out: Proliferation inhibition IC50): 6.58; pIC50 ([3]; MDA-MB-231 cells, comparative Table 4, read-out: MDA-MB-231 Proliferation inhibition IC50): 6.58
2 | CC[C@@]1(O)C(=O)OCc2c1cc1n(c2=O)Cc2c-1nc1cc(F)c(C)cc1c2CO [Example 12b] | 8.49 | 7.78 | 7.69 | pIC50 ([1]; MDA-MB-435S, read-out: MDA-MB-435s Proliferation inhibition IC50): 8.49; pIC50 ([2]; MCF7, read-out: MCF-7 Proliferation inhibition IC50): 7.78; Papp A→B at 180 min, 100 μg/mL (in vitro): 49.3 ×10⁻⁶ cm/s; pIC50 ([3]; MDA-MB-231, read-out: MDA-MB-231 Proliferation inhibition IC50): 7.69
3 | CC[C@@]1(O)C(=O)OCc2c1cc1n(c2=O)Cc2c-1nc1cc(F)c(OC)cc1c2[C@H](C)N [Example 30a] | 8.48 | 8.20 | 7.94 | 
4 | CC[C@@]1(O)C(=O)OCc2c1cc1n(c2=O)Cc2c-1nc1cc(F)c(OC)cc1c2[C@@H](C)N [Example 30b] | 9.05 | 8.42 | 7.60 | 
5 | CC[C@@]1(O)C(=O)OCc2c1cc1n(c2=O)Cc2c-1nc1cc(F)c(OC)cc1c2[C@H](C)O [Example 30c] | 8.42 | 8.09 | 7.91 | 
6 | CC[C@@]1(O)C(=O)OCc2c1cc1n(c2=O)Cc2c-1nc1cc(F)c(OC)cc1c2[C@@H](C)O [Example 30d] | 8.92 | 8.39 | 7.55 | 
7 | CC[C@@]1(O)C(=O)OCc2c1cc1n(c2=O)Cc2c-1nc1ccc(OC)cc1c2[C@H](C)N [Example 31a] | 8.42 | 8.09 | 7.82 | 
8 | CC[C@@]1(O)C(=O)OCc2c1cc1n(c2=O)Cc2c-1nc1ccc(OC)cc1c2[C@@H](C)N [Example 31b] | 9.00 | 8.39 | 8.04 | 
9 | CC[C@@]1(O)C(=O)OCc2c1cc1n(c2=O)Cc2c-1nc1ccc(OC)cc1c2[C@H](C)O [Example 31c] | 8.24 | 7.99 | 7.74 | 
10 | CC[C@@]1(O)C(=O)OCc2c1cc1n(c2=O)Cc2c-1nc1ccc(OC)cc1c2[C@@H](C)O [Example 31d] | 8.64 | 8.09 | 8.08 | 
11 | CC[C@@]1(O)C(=O)OCc2c1cc1n(c2=O)Cc2c-1nc1ccc(C(F)F)cc1c2[C@H](C)N [Example 32a] | 8.47 | 8.12 | 7.78 | 
12 | CC[C@@]1(O)C(=O)OCc2c1cc1n(c2=O)Cc2c-1nc1ccc(C(F)F)cc1c2[C@@H](C)N [Example 32b] | 8.73 | 8.26 | 7.69 | 
13 | CC[C@@]1(O)C(=O)OCc2c1cc1n(c2=O)Cc2c-1nc1cc(F)c(F)cc1c2[C@H](C)N [Example 33a] | 8.63 | 8.19 | 7.96 | 
14 | CC[C@@]1(O)C(=O)OCc2c1cc1n(c2=O)Cc2c-1nc1cc(F)c(F)cc1c2[C@@H](C)N [Example 33b] | 9.07 | 8.07 | 7.61 | 
15 | CC[C@@]1(O)C(=O)OCc2c1cc1n(c2=O)Cc2c-1nc1cc(F)c(C(F)(F)F)cc1c2[C@H](C)N [Example 34a] | 8.36 | 8.02 | 7.94 | 
16 | CC[C@@]1(O)C(=O)OCc2c1cc1n(c2=O)Cc2c-1nc1cc(F)c(C(F)(F)F)cc1c2[C@@H](C)N [Example 34b] | 8.55 | 8.38 | 8.06 | 
